Measurements: patent US8889670B2, “Heterocyclic compounds which modulate the CB2 receptor” (Boehringer Ingelheim International GmbH, priority 2009, dated 2014)
Like-named read-outs stand apart in the source and are kept apart here. Values belong to the molecule of their own block, whether it stands above or below them.

Target: T1, human CB2R (Homo sapiens, UniProt P34972)
T1 construct: host or cells: CHO cells
Assay: CB2R mediated modulation of cAMP synthesis (forskolin-stimulated cAMP, CHO cells expressing human CB2R)
Type: cell-based
Experimental: B. CB2R Mediated Modulation of cAMP Synthesis:
Compounds of the invention were evaluated for their CB2 agonist or inverse agonistic activity in accordance with the following experimental method.
CHO cells expressing human CB2R (Euroscreen) were plated at a density of 5000 cells per well in 384 well plates and incubated overnight at 37° C. After removing the media, the cells were treated with test compounds diluted in stimulation buffer containing 1 mM IBMX, 0.25% BSA and 10 uM Forskolin. The assay was incubated for 30 minutes at 37° C. Cells were lysed and the cAMP concentration was measured using DiscoverX-XS cAMP kit, following the manufacturer's protocol. In this setting, agonists will decrease forskolin induced production of cAMP while inverse agonists will further increase forskolin induced production of cAMP. EC50 of agonists were calculated as follows. The maximal amount of cAMP produced by forskolin compared to the level of cAMP inhibited by 1 uM CP55940 is defined as 100%. […] Data was analyzed using a four-parameter logistic model. (Model 205 of XLfit 4.0).

[1] = agonist EC50, inhibition of forskolin-stimulated cAMP synthesis, CHO cells expressing human CB2R, mean, read-out: CB2 CAMP @ EC50 nM (mean)

T1 sequence (P34972 whole entry): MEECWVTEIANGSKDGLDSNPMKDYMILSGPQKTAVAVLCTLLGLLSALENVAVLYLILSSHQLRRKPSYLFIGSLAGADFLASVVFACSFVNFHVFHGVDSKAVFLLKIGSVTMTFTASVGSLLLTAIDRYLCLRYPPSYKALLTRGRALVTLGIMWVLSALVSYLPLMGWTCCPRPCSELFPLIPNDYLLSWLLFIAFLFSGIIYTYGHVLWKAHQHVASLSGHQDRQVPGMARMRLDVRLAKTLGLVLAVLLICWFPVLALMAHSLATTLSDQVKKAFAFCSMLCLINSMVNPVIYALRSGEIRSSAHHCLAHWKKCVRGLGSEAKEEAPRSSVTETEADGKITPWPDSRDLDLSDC

SMILES: O=C(Nc1ccc(C(F)(F)F)cn1)[C@@H]1CCCCN1CC1CCOCC1 [(S)-1-(Tetrahydro-pyran-4-ylmethyl)-piperidine-2-carboxylic acid (5-trifluoromethyl-pyridin-2-yl)-amide]
EC50: 69 nM

SMILES: O=C(Nc1nc(-c2ccc(F)cc2F)cs1)[C@@H]1CCCCN1C(=O)N1CCS(=O)(=O)CC1 [(S)-1-(1,1-Dioxo-1λ^6-thiomorpholine-4-carbonyl)-piperidine-2-carboxylic acid [4-(2,4-difluoro-phenyl)-thiazol-2-yl]-amide]
EC50: 22 nM

SMILES: CC(C)c1nsc(NC(=O)[C@@H]2CCCCN2CC2CCOCC2)n1 [(S)-1-(Tetrahydro-pyran-4-ylmethyl)-piperidine-2-carboxylic acid (3-isopropyl-1,2,4-thiadiazol-5-yl)-amide]
EC50 [1]: 208 nM

SMILES: CC(C)(C)c1cc(NC(=O)[C@@H]2CCCCN2C(=O)C2CCCCCC2)no1
EC50: 8.2 nM

EC50 [1]: 59 nM
SMILES: O=C(Nc1nc2c(F)cccc2s1)[C@@H]1CCCCN1C(=O)N1CCS(=O)(=O)CC1 [(S)-1-(1,1-Dioxo-1λ^6-thiomorpholine-4-carbonyl)-piperidine-2-carboxylic acid (4-fluoro-benzothiazol-2-yl)-amide]

EC50 [1]: 14 nM
SMILES: O=C(Nc1nsc(-c2ccccc2)n1)[C@@H]1CCCCN1CC1CCOCC1 [(S)-1-(Tetrahydro-pyran-4-ylmethyl)-piperidine-2-carboxylic acid (5-phenyl-1,2,4-thiadiazol-3-yl)-amide]

SMILES: CCn1nc(NC(=O)[C@@H]2CCCCN2C(=O)N2CCS(=O)(=O)CC2)nc1-c1ccccc1 [(S)-1-(1,1-Dioxo-1λ^6-thiomorpholine-4-carbonyl)-piperidine-2-carboxylic acid (1-ethyl-5-phenyl-1H-1,2,4-triazol-3-yl)-amide]
EC50 [1]: 135 nM

SMILES: CC(C)(C)c1cc(NC(=O)[C@@H]2CCCCN2C(=O)CN2CCC(F)(F)CC2)no1 [(S)-1-[2-(4,4-Difluoro-piperidin-1-yl)-acetyl]-piperidine-2-carboxylic acid (5-tert-butyl-isoxazol-3-yl)-amide]
EC50: 34 nM

SMILES: CC(C)(C)c1cc(NC(=O)[C@@H]2CCCCN2C(=O)CC2CCS(=O)(=O)C2)no1 (stereo partly drawn) [(S)-1-[2-(1,1-Dioxo-tetrahydro-1λ^6-thiophen-3-yl)-acetyl]-piperidine-2-carboxylic acid (5-tert-butyl-isoxazol-3-yl)-amide]
EC50: 7.7 nM

SMILES: CC(C)(C)c1cc(NC(=O)[C@@H]2CCCCCN2c2ccc(Cl)cc2)no1 [(S)-1-(4-Chloro-phenyl)-azepane-2-carboxylic acid (5-tert-butyl-isoxazol-3-yl)-amide]
EC50: 0.4 nM

SMILES: CC(C)(C)c1cc(NC(=O)[C@@H]2CCCCCN2C2CCOCC2)no1 [(S)-1-(Tetrahydro-pyran-4-yl)-azepane-2-carboxylic acid (5-tert-butyl-isoxazol-3-yl)-amide]
EC50: 0.18 nM

SMILES: CC(C)(C)c1cc(NC(=O)[C@@H]2CCCCCN2C(=O)N2CCS(=O)(=O)CC2)no1 [(S)-1-(1,1-Dioxo-1λ^6-thiomorpholine-4-carbonyl)-azepane-2-carboxylic acid (5-tert-butyl-isoxazol-3-yl)-amide]
EC50: 15 nM

SMILES: CC(C)(C)c1cc(NC(=O)C2CN(C(=O)c3ccc(C(F)(F)F)cc3)CCO2)no1 (stereo not shown) [4-(4-Trifluoromethyl-benzoyl)-morpholine-2-carboxylic acid (5-tert-butyl-isoxazol-3-yl)-amide]
EC50: 85 nM

EC50 [1]: 9.9 nM
SMILES: O=C(Nc1nc(-c2ccccc2)cs1)[C@@H]1CCCCN1CC1CCOCC1 [(S)-1-(Tetrahydro-pyran-4-ylmethyl)-piperidine-2-carboxylic acid (4-phenyl-thiazol-2-yl)-amide]

SMILES: CC(C)(C)c1cc(NC(=O)[C@@H]2CCCCN2C(=O)C2CCC(F)(F)CC2)no1 [(S)-1-(4,4-Difluoro-cyclohexanecarbonyl)-piperidine-2-carboxylic acid (5-tert-butyl-isoxazol-3-yl)-amide]
EC50: 4.6 nM

SMILES: CC(C)(C)c1cc(NC(=O)[C@@H]2CCCCN2C(=O)CN2CCCC2)no1 [(S)-1-(2-Pyrrolidin-1-yl-acetyl)-piperidine-2-carboxylic acid (5-tert-butyl-isoxazol-3-yl)-amide]
EC50 [1]: 431 nM
